Values after ≈ are worked out from the molar mass of the structure shown.
Tests used:
Assay type in all cases: cell-based
[1] = system: Citrobacter werkmanii Brenner ATCC-51114; assay: MIC (50% NHS); conditions: ATCC51114; Citrobacter werkmanii Brenner ATCC-51114, 50% NHS
[2] = system: Klebsiella pneumonia ATCC-700603; assay: MIC (50% NHS); conditions: Klebsiella pneumoniae, ATCC700603; Klebsiella pneumonia ATCC-700603, 50% NHS
[3] = system: Enterobacter cloacae ATCC-222; assay: MIC (50% NHS); conditions: ATCC222; Enterobacter cloacae ATCC-222, 50% NHS
[4] = system: Klebsiella pneumonia ATCC-43816; assay: MIC (50% NHS); conditions: Klebsiella pneumoniae, ATCC43816; Klebsiella pneumonia ATCC-43816, 50% NHS
[5] = system: Pseudomonas aeruginosa ATCC-BAA-47 (PAO1); assay: MIC (50% NHS)
[6] = system: Enterobacter aerogenes ATCC-13048; assay: MIC (50% NHS); conditions: Klebsiella aerogenes, ATCC13048; Enterobacter aerogenes ATCC-13048, 50% NHS
[7] = system: Enterococcus faecalis ATCC-29212; assay: MIC (50% NHS); conditions: ATCC29212; Enterococcus faecalis ATCC-29212, 50% NHS
[8] = system: Acinetobacter baumannii ATCC 17978; assay: MIC (50% NHS); conditions: ATCC17978; Acinetobacter baumannii ATCC 17978, 50% NHS
[9] = system: Enterobacter cloacae ATCC-BAA-1143; assay: MIC (50% NHS); conditions: ATCCBAA1143; Enterobacter cloacae ATCC-BAA-1143, 50% NHS
[10] = system: Proteus mirabilis ATCC-29906; assay: MIC (50% NHS); conditions: ATCC29906; Proteus mirabilis ATCC-29906, 50% NHS
[11] = system: Escherichia coli ATCC-25922; assay: MIC in the presence of normal human serum (50% NHS); conditions: ATCC25922; Escherichia coli ATCC-25922, 50% NHS, Table 6; read-out: MIC
Source text: As used herein, the term “MIC” refers to minimum inhibitory concentrations. Minimum inhibitory concentrations may be determined by broth microdilution according to the Clinical and Laboratory Standards Institute guidelines (see, e.g., […]-A8. Methods for dilution antimicrobial susceptibility tests for bacteria that grow aerobically: approved standard, 8th Ed.; […] One example for measuring minimum inhibitory concentrations may be found in Reck et al., 2012, J. Med. Chem. 55:6916-6933, the disclosure of which is incorporated by reference. Inoculants may be incubated on blood agar plates for 18 to 24 hours. Incubation may occur at a temperature from about 35° C. to about 37° C. […] In serum supplemented experiments, the testing medium (e.g., DMSO solution) and human serum may be mixed. The ratio of testing medium to human serum may be 1:1 (vol:vol). Plates may be read by spectrophotometry at 620 nm. Unless indicated otherwise, all inhibitory concentrations recited in the specification relate to MICs. The MIC tests were based on broth microdilution method in CLSI-M7. […] Solutions of varying concentrations of DMSO were prepared in wells of a v-bottom 96-well plate (Axygen-WIPP02280). A multi-pipette was used to perform serial dilutions as necessary. From well to well, the drug concentrations were 6.4, 3.2, 1.6, 0.8, 0.4, 0.2, 0.1, 0.05, 0.025, 0.0125, 0.00625 and 0 mg/ml in DMSO. For extremely potent antibiotic, the starting concentrations were adjusted accordingly. This was the drug mother plate. Daughter plates were prepared by placing 98 μl of a testing medium into each well of a u-bottom 96-well plate (Costar 3788). An aliquot of each 2 μl solution from each well of the mother plate was then transferred into the corresponding wells of the daughter plate using a multi-pipette work station (CyBi®-SELMA). Testing media were selected based on CLSI-M7, M11 and […]. Cation adjusted Mueller Hinton Broth (CA-MHB-212322) was the testing medium for majority of bacterial species. Brucella medium (BD-211088) supplemented with 5% LHB, 0.5% hemin and 0.1% vitamin K1 (Sigma-95271) was the testing medium for anaerobic bacteria. One day prior to the day of MIC test, bacterial strains were streaked out from -80° C. glycerol stock onto Trypticase Soy Agar (TSA) plates (Brucella blood agar for anaerobic bacteria) and incubated at 37° C. for 20 hours (in anaerobic condition for anaerobic bacteria, e.g., 80% N2, 10% H2 and 10% CO2). Single colonies of bacteria were picked by using an inoculation loop (Greiner-731175) and suspended into 5 ml sterile saline. The turbidity of the suspension was adjusted to 0.10 (Siemens MicroS can turbidity meter), which implies a concentration of colony forming units (“CFU”) of approximately 1.0×10^8 CFU/ml. The bacterial suspension was diluted 100× in testing media. For MIC experiments with NHS, testing medium and human serum (Equitech Bio Inc. BRH-949908) were mixed in the ratio of 1:1. This was used for inoculation of the daughter plates. An aliquot of 100 μl of the bacterial suspension was inoculated into each well of the daughter plates using a multi-pipette. […] The plates were incubated in ambient atmosphere and at 37° C. in an incubator for 20 hours (for anaerobic bacteria in an anaerobic condition as described above for 48 hours). The MIC values were determined and based on the standards of CLSI methods M7-A7, broth microdilution method. […] Test compounds were compared to control antibiotics Penicillin G (Sigma-13752) and levofloxacin (Sigma-28266). […] Additionally, the MIC's of another gyrase inhibitor (“GSK”) with a structure different from the inventive compounds and the antibacterial levofloxin was measured. MIC are given in μg/mL.

[12] = system: Staphylococcus aureus NRS-384; assay: MIC (50% NHS); conditions: NRS384; Staphylococcus aureus NRS-384, 50% NHS
[13] = system: Escherichia coli ATCC-BAA-2340; assay: MIC (50% NHS); conditions: ATCCBAA2340; Escherichia coli ATCC-BAA-2340, 50% NHS
[14] = system: Staphylococcus aureus NRS-100; assay: MIC (50% NHS); conditions: NRS100; Staphylococcus aureus NRS-100, 50% NHS
[15] = system: Serratia marcescens Bizio ATCC-29021; assay: MIC (50% NHS); conditions: ATCC29021; Serratia marcescens Bizio ATCC-29021, 50% NHS
[16] = system: Staphylococcus aureus WX1-009; assay: MIC (50% NHS); conditions: WX1009; Staphylococcus aureus WX1-009, 50% NHS
[17] = system: Enterococcus faecium ATCC-700221; assay: MIC (50% NHS); conditions: ATCC700221; Enterococcus faecium ATCC-700221, 50% NHS
[18] = system: Escherichia coli CCUG-59353; assay: MIC (50% NHS); conditions: CCUG59353; Escherichia coli CCUG-59353, 50% NHS
[19] = system: Staphylococcus aureus ATCC-29213; assay: MIC (50% NHS); conditions: ATCC29213; Staphylococcus aureus ATCC-29213, 50% NHS
[20] = system: Escherichia coli NCTC-13476; assay: MIC (50% NHS); conditions: NCTC13476; Escherichia coli NCTC-13476, 50% NHS

- MIC [1]: 0.25 µg/mL (≈ 0.692 µM)
- MIC [2]: 0.5 µg/mL (≈ 1.38 µM)
- MIC [3]: 0.06 µg/mL (≈ 0.166 µM)
- MIC [4]: 0.13 µg/mL (≈ 0.36 µM)
- MIC [5]: 1 µg/mL (≈ 2.77 µM)
- MIC [6]: 0.13 µg/mL (≈ 0.36 µM)
- MIC [7]: 2 µg/mL (≈ 5.53 µM)
- MIC [8]: 1 µg/mL (≈ 2.77 µM)
- MIC [9]: 0.06 µg/mL (≈ 0.166 µM)
- MIC [10]: 0.25 µg/mL (≈ 0.692 µM)
- MIC [12]: 1 µg/mL (≈ 2.77 µM)
- MIC [13]: > 2 µg/mL
- MIC [14]: 0.5 µg/mL (≈ 1.38 µM)
- MIC [15]: 0.13 µg/mL (≈ 0.36 µM)
- MIC [16]: > 2 µg/mL
- MIC [17]: > 2 µg/mL
- MIC [18]: > 2 µg/mL
- MIC [19]: 0.5 µg/mL (≈ 1.38 µM)
- MIC [20]: > 2 µg/mL
Compound: C[C@H]1COc2c(N3CCN(C)CC3)c(F)cc3c(=O)c(C(=O)O)cn1c23 [Levofloxin, reference compound]
- MIC [11]: 0.031 µg/mL
